TGI and GI50 data for eleven compounds are collected here from PubChem BioAssay (NCI).

Some test systems named below: DMS 114 small cell lung; P388 leukemia; P388/ADR leukemia; SN12K1 renal.
What all share (test): NCI tumour cell line growth inhibition, 48 h

Where “and” joins values, the source holds several entries; their conditions need not be identical. Equal entries are not always repeated.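 Dose response: 5 concentrations. Exposure: 48 h. Format: 96-well plates. Endpoint: linear interpolation; highest concentration if not reached. At the GI50, growth is halved. At the TGI there is no net growth.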

For `O=C1NCCCC12CCCNC2=O`, the TGI with DMS 114 small cell lung is above 100 µM.

Take `O=C(Cc1ccccc1)NN1C(=O)C(Cl)C1c1ccc([N+](=O)[O-])cc1` (centres undefined): the TGI with DMS 114 small cell lung was above 100 µM.

`COC(=O)C1=C(C(=O)OC)C2C(C)=CC(C)=CN2C(C#N)=C(SC)S1` (centres undefined) gave a TGI with DMS 114 small cell lung of 54.7 µM.

`Nc1ccc(C(=O)NN2C(=O)C(Cl)C2c2cc(Br)ccc2O)cc1` (centres undefined) registered a TGI with DMS 114 small cell lung above 100 µM.

`COP(=O)(OC)C(=NCc1ccccc1)NNc1ccc([N+](=O)[O-])cc1` registered a TGI in the assay on DMS 114 small cell lung of 76 µM.

`COc1c(OC)c(N)c2cc(C)c(=O)c(C)cc2c1N`: the TGI in the assay on DMS 114 small cell lung is above 100 µM.

On to `NC(=O)NO`, for which the values for the TGI in the assay with P388 leukemia, in the assay with P388/ADR leukemia and in the assay on SN12K1 renal were 548 µM, 502 µM and 1.89 mM, respectively.

With `COc1cc(C2c3cc4c(cc3[C@@H](NCCN3CCCCC3)C3COC(=O)[C@H]23)OCO4)cc(OC)c1O` (some centres undefined), in the assay with DMS 114 small cell lung, the GI50 is 510 nM and 1640 nM; the TGI is 10.9 µM and 16 µM.

`CCn1c2ccccc2c2ccc3c(c21)C(=O)c1ccccc1C3=O` returned a TGI in the assay with DMS 114 small cell lung above 100 µM.

In the assay with DMS 114 small cell lung, `COc1cc(Cl)cc(N(O)C(C)=O)c1OCc1ccccc1` displayed a TGI of 71.5 µM.

On to `COc1ccc(N(C)Sc2ccccc2)cc1`, for which the TGI with DMS 114 small cell lung was above 100 µM.
